ChEMBL document CHEMBL1201862, “PubChem BioAssay data set” (2004)
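1) Cells in 96-well plates. 2) Compound, 48 h, 5 concentrations. 3) Linear interpolation between surrounding doses. 4) Unreached endpoint = highest concentration. The concentration for 50% growth inhibition is given as GI50.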 Calls of active or inactive are those of the source. No stated cut-off is given here; in the data, active = GI50 up to about 1.1 µM and inactive = higher.

Tests used:
Test in all cases: inhibition of tumour cell growth, NCI panel, 48 h
[1] = tested on: K562
[2] = tested on: A549
[3] = tested on: PC-3
[4] = tested on: BT-549
[5] = tested on: NCI/ADR-RES
[6] = tested on: NCI-H23
[7] = tested on: HCC 2998
[8] = tested on: HCT-116
[9] = tested on: NCI-H522
[10] = tested on: OVCAR-5
[11] = tested on: SF-268
[12] = tested on: SF-539
[13] = tested on: UACC-257
[14] = tested on: COLO 205
[15] = tested on: SW-620
[16] = tested on: Hs-578T
[17] = tested on: TK-10
[18] = tested on: HL-60
[19] = tested on: LOX IMVI

Row | Structure (SMILES) | GI50 [1] | GI50 [2] | GI50 [3] | GI50 [4] | GI50 [5] | GI50 [6] | GI50 [7] | GI50 [8] | GI50 [9] | GI50 [10] | GI50 [11] | GI50 [12] | GI50 [13] | GI50 [14] | GI50 [15] | GI50 [16] | GI50 [17] | GI50 [18] | GI50 [19]
1 | c1ccc(/C(=N/Nc2ccncn2)c2ccccn2)cc1 | 0.528 µM (active) | 30.4 µM (inactive) | 36.5 µM (inactive) | 35.1 µM (inactive) | 18.4 µM (inactive) | 17.6 µM (inactive) | > 100 µM (inactive) | 14.3 µM (inactive) | 0.776 µM (active) | 34.5 µM (inactive) | 15.9 µM (inactive) | 32.2 µM (inactive) | 20.9 µM (inactive) | 1.03 µM (active) | 6.32 µM (inactive) | 0.0114 µM (active) | – | – | –
2 | Cc1cnc2c(c1C)C(=O)c1ccccc1C2=O | 39.4 µM (inactive) | 40.1 µM (inactive) | 26 µM (inactive) | > 100 µM (inactive) | 46.3 µM (inactive) | 44.7 µM (inactive) | 29.7 µM (inactive) | 36.1 µM (inactive) | > 100 µM (inactive) | > 100 µM (inactive) | 20.1 µM (inactive) | 29.2 µM (inactive) | 49.4 µM (inactive) | 28.8 µM (inactive) | 27.5 µM (inactive) | 32.9 µM (inactive) | > 100 µM (inactive) | – | –
3 | CCOP(=O)(OCC)c1cc(-c2ccccc2)ccc1N | > 100 µM (inactive) | > 100 µM (inactive) | > 100 µM (inactive) | > 100 µM (inactive) | > 100 µM (inactive) | > 100 µM (inactive) | > 100 µM (inactive) | 66.5 µM (inactive) | 61.8 µM (inactive) | > 100 µM (inactive) | > 100 µM (inactive) | – | > 100 µM (inactive) | > 100 µM (inactive) | > 100 µM (inactive) | 52 µM (inactive) | > 100 µM (inactive) | – | –
4 | CSc1ccc(C(=O)C(=O)c2ccc(SC)s2)s1 | 6.32 µM (inactive) | > 10 µM (inactive) | > 10 µM (inactive) | – | 8.45 µM (inactive) | > 10 µM (inactive) | > 10 µM (inactive) | > 10 µM (inactive) | > 10 µM (inactive) | > 10 µM (inactive) | > 10 µM (inactive) | 4.85 µM (inactive) | > 10 µM (inactive) | > 10 µM (inactive) | > 10 µM (inactive) | 3.46 µM (inactive) | > 10 µM (inactive) | 3.43 µM (inactive) | > 10 µM (inactive)
5 | N#Cc1[nH]c(=O)n(-c2ccc([N+](=O)[O-])cc2)c1N | > 10 µM (inactive) | > 10 µM (inactive) | > 10 µM (inactive) | – | > 10 µM (inactive) | > 10 µM (inactive) | > 10 µM (inactive) | > 10 µM (inactive) | > 10 µM (inactive) | > 10 µM (inactive) | > 10 µM (inactive) | > 10 µM (inactive) | > 10 µM (inactive) | > 10 µM (inactive) | > 10 µM (inactive) | > 10 µM (inactive) | > 10 µM (inactive) | > 10 µM (inactive) | > 10 µM (inactive)
6 | CCOC(=O)C1=COC(C)(CCc2ccccc2)CC1=O (centres undefined) | 40.3 µM (inactive) | 40.9 µM (inactive) | 89.1 µM (inactive) | 71.4 µM (inactive) | > 100 µM (inactive) | 95.5 µM (inactive) | – | 67.9 µM (inactive) | 24.7 µM (inactive) | > 100 µM (inactive) | > 100 µM (inactive) | 66.5 µM (inactive) | > 100 µM (inactive) | > 100 µM (inactive) | > 100 µM (inactive) | 45 µM (inactive) | > 100 µM (inactive) | – | –
7 | CC1=NN(c2nc(N)nc(C/C(N)=N/O)n2)C(C)(C)C1 | > 100 µM (inactive) | > 100 µM (inactive) | – | > 100 µM (inactive) | > 100 µM (inactive) | > 100 µM (inactive) | > 100 µM (inactive) | > 100 µM (inactive) | > 100 µM (inactive) | > 100 µM (inactive) | > 100 µM (inactive) | > 100 µM (inactive) | > 100 µM (inactive) | > 100 µM (inactive) | > 100 µM (inactive) | > 100 µM (inactive) | > 100 µM (inactive) | > 100 µM (inactive) | > 100 µM (inactive)
8 | CNC(=O)C(C)C1C(=O)/C(=C(O)/C=C\C(C)=C\C(C)C2OC3(C)OC(C=CC34CO4)C2C)C(=O)N1C1CCC(O)C(C)O1 (centres undefined) | > 100 µM (inactive) | > 100 µM (inactive) | > 100 µM (inactive) | > 100 µM (inactive) | > 100 µM (inactive) | – | > 100 µM (inactive) | > 100 µM (inactive) | – | > 100 µM (inactive) | > 100 µM (inactive) | > 100 µM (inactive) | > 100 µM (inactive) | > 100 µM (inactive) | > 100 µM (inactive) | – | > 100 µM (inactive) | – | –
9 | Clc1ccc(OCc2nnc(CCCCCCCCc3nnc(COc4ccc(Cl)cc4Cl)o3)o2)c(Cl)c1 | 18.2 µM (inactive) | 49.2 µM (inactive) | 60.3 µM (inactive) | > 100 µM (inactive) | 76.6 µM (inactive) | > 100 µM (inactive) | > 100 µM (inactive) | 15.7 µM (inactive) | 18.7 µM (inactive) | > 100 µM (inactive) | 42 µM (inactive) | – | > 100 µM (inactive) | > 100 µM (inactive) | > 100 µM (inactive) | – | > 100 µM (inactive) | – | –
10 | COc1c(C)c(C/C=C(\C)CC/C=C(\C)CC/C=C(\C)CC/C=C(\C)CCC=C(C)C)c(OC)c(OC)c1OC | 24.4 µM (inactive) | 17.6 µM (inactive) | 52.8 µM (inactive) | 85.1 µM (inactive) | 25 µM (inactive) | 17.6 µM (inactive) | – | 58.3 µM (inactive) | 16 µM (inactive) | > 100 µM (inactive) | 18.6 µM (inactive) | > 100 µM (inactive) | 80.5 µM (inactive) | > 100 µM (inactive) | 97.7 µM (inactive) | > 100 µM (inactive) | 24 µM (inactive) | – | 17.1 µM (inactive)
11 | COC(=O)C1Cc2c(OC)ccc(OC)c2CC(C(=O)OC)C1=O (centres undefined) | > 100 µM (inactive) | > 100 µM (inactive) | > 100 µM (inactive) | > 100 µM (inactive) | > 100 µM (inactive) | 32.4 µM (inactive) | > 100 µM (inactive) | > 100 µM (inactive) | > 100 µM (inactive) | > 100 µM (inactive) | > 100 µM (inactive) | > 100 µM (inactive) | > 100 µM (inactive) | > 100 µM (inactive) | > 100 µM (inactive) | > 100 µM (inactive) | – | – | –
12 | COc1cc2c3c(c4cc(OC)c(OC)cc4c2cc1OC)[C@H](O)[C@@H]1CCCN1C3 | < 0.021 µM (active) | < 0.0254 µM (active) | < 0.0303 µM (active) | 0.144 µM (active) | < 0.0372 µM (active) | < 0.0344 µM (active) | < 0.0243 µM (active) | < 0.0215 µM (active) | < 0.0378 µM (active) | < 0.0316 µM (active) | < 0.0408 µM (active) | < 0.0365 µM (active) | < 0.0383 µM (active) | < 0.0179 µM (active) | < 0.0269 µM (active) | – | 0.0562 µM (active) | < 0.0357 µM (active) | < 0.0265 µM (active)
